≈ marks a conversion by molar mass, not a printed value.
Experiments:
[1] = molecular target: T1, M. tuberculosis LeuRS editing domain (LeuRSMtb; pMtbED) (Mycobacterium tuberculosis, UniProt P9WFV1); assay: isothermal titration calorimetry; assay type: binding
T1 construct: gene leuS
Text: isothermal titration calorimetry on M. tuberculosis LeuRS editing domain (LeuRSMtb; pMtbED)

[2] = molecular target: T2, M. abscessus LeuRS editing domain (LeuRSMabs; pMabsED) (Mycobacteroides abscessus, UniProt B1MMK6); assay: isothermal titration calorimetry; assay type: binding
T2 construct: gene leuS; editing domain, residues 303-499 (text on crystals prints 303-498); N-terminal His tag with TEV site, removed; synthetic codon-optimised gene, pET24a(+), E. coli BL21(DE3)
T2 sequence (B1MMK6 303-499): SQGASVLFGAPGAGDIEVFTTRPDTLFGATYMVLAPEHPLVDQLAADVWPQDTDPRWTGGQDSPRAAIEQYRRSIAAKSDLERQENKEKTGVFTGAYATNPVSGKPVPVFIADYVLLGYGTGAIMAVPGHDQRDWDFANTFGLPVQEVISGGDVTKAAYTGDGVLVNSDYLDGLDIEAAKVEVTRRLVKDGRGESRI
Text: isothermal titration calorimetry on M. abscessus LeuRS editing domain (LeuRSMabs; pMabsED)

[3] = test system: T3, M. tuberculosis H37Rv; assay: microbe, parasite or virus in culture; set-up: Whole-cell growth inhibition, dose-response MIC (MIC90) by resazurin microtiter assay (REMA), fluorescence read-out; settings: Mycobacterium tuberculosis, H37RV, read-out: MIC (µg/mL) / EPT
T3 construct: H37Rv

[4] = test system: M. avium intracellulaire; assay: microbe, parasite or virus in culture; set-up: Whole-cell growth inhibition, dose-response MIC (MIC90) by resazurin microtiter assay (REMA), fluorescence read-out; settings: Mycobacterium avium, read-out: MIC (µg/mL) / EPT
[5] = test system: T4, M. tuberculosis Erdman; assay: microbe, parasite or virus in culture; set-up: Whole-cell growth inhibition, dose-response MIC (MIC90) by resazurin microtiter assay (REMA), fluorescence read-out; settings: Mycobacterium tuberculosis, ERDMAN, read-out: MIC (µg/mL) / EPT
T4 construct: Erdman

[6] = test system: M. avium hominissuis; assay: microbe, parasite or virus in culture; set-up: Whole-cell growth inhibition, dose-response MIC (MIC90) by resazurin microtiter assay (REMA), fluorescence read-out; settings: Mycobacterium avium, read-out: MIC (µg/mL) / EPT
[7] = test system: B. cereus; assay: microbe, parasite or virus in culture; set-up: Whole-cell growth inhibition, dose-response MIC (MIC90) by resazurin microtiter assay (REMA), fluorescence read-out; settings: Bacillus cereus, read-out: MIC (µg/mL) / EPT
[8] = test system: E. coli; assay: microbe, parasite or virus in culture; set-up: Whole-cell growth inhibition, dose-response MIC (MIC90) by resazurin microtiter assay (REMA), fluorescence read-out; settings: Escherichia coli, read-out: MIC (µg/mL) / EPT
[9] = test system: P. aeruginosa; assay: microbe, parasite or virus in culture; set-up: Whole-cell growth inhibition, dose-response MIC (MIC90) by resazurin microtiter assay (REMA), fluorescence read-out; settings: Pseudomonas aeruginosa, read-out: MIC (µg/mL) / EPT
[10] = test system: M. abscessus; assay: microbe, parasite or virus in culture; set-up: Whole-cell growth inhibition, dose-response MIC (MIC90) by resazurin microtiter assay (REMA), fluorescence read-out; settings: Mycobacteroides abscessus, read-out: MIC (µg/mL) / EPT
[11] = test system: C. glutamicum; assay: microbe, parasite or virus in culture; set-up: Whole-cell growth inhibition, dose-response MIC (MIC90) by resazurin microtiter assay (REMA), fluorescence read-out; settings: Corynebacterium glutamicum, read-out: MIC (µg/mL) / EPT
[12] = test system: T5, Mycobacteroides abscessus subsp. massiliense MT15_1748; assay: microbe, parasite or virus in culture; set-up: species or system M. abscessus; Resazurin microtiter assay (REMA), fluorescence; MIC at 90% growth inhibition from Gompertz fit; settings: 48 h, rough morphotype, read-out: MIC EPT
T5 construct: MT15_1748
Procedure: (§1) MIC values were determined using the resazurin microtiter assay (REMA). Cultures were grown to log phase (OD600 of 0.4–0.8) and diluted to OD600 of 0.005. Drugs were prepared in two-fold serial dilutions in 96-well plates with 90 μL of bacteria per well to a final volume of 100 μL. Plates were incubated at 37°C until drug-free wells were turbid (2 days for M. abscessus). Ten μL of resazurin (0.025% wt/vol) was added to each well. Once the drug-free wells turned pink (one doubling time), the fluorescence (ex/em 560nm/590nm) was measured using an Infinite F200 Tecan plate reader. Fluorescence intensities were converted to % viable cells relative to drug-free conditions and fit to the Gompertz equation using GraphPad Prism version 9. MIC values at 90% growth inhibition were determined from the nonlinear regression Gompertz equation. Next, we tested the in vitro activity of EPT against a panel of M. abscessus clinical isolates belonging to the three subspecies of the M. abscessus complex (M. abscessus, M. massiliense, and M. bolletii) with smooth and rough colony morphologies and with different drug susceptibility profiles to various antibiotics. There was no loss in activity against clinical isolates (range of 0.014–0.046 μg/mL) nor different morphologies (S2 Table). To determine the spectrum of activity of EPT, we curated a panel of various mycobacteria and representative gram-positive and gram-negative bacteria. […] Mycobacteria strains were grown in rolling [compound left out] culture at 37°C in Middlebrook 7H9 (Difco) supplemented with 10% albumin dextrose catalase (ADC), 0.2% glycerol, and 0.05% Tween 80 (7H9 complete) or on 7H10 agar plates supplemented with 10% oleic acid ADC and 0.5% glycerol at 37°C. When mentioned, the carbon source was modified from glycerol to acetate or the detergent Tween 80 was removed from the media. Bacillus cereus (clinical isolate), Corynebacterium glutamicum (ATCC 13032), Escherichia coli, and Pseudomonas aeruginosa PAO1 were grown in LB broth. HepG2 cells (ATCC HB-8065) were grown in Dulbecco’s modified Eagle’s medium (DMEM) with phenol red (from Gibco) supplemented with 10% fetal bovine serum at 37°C with 5% CO2.

[13] = test system: T6, Mycobacteroides abscessus subsp. massiliense MT15_1749; assay: microbe, parasite or virus in culture; set-up: species or system M. abscessus; Resazurin microtiter assay (REMA), fluorescence; MIC at 90% growth inhibition from Gompertz fit; settings: 48 h, rough morphotype, read-out: MIC EPT
T6 construct: MT15_1749
Procedure: as §1

[14] = test system: T7, Mycobacteroides abscessus subsp. abscessus ATCC 19977; assay: microbe, parasite or virus in culture; set-up: species or system M. abscessus; Resazurin microtiter assay (REMA), fluorescence; MIC at 90% growth inhibition from Gompertz fit; settings: ATCC19977, 48 h, rough morphotype, read-out: MIC EPT
T7 construct: ATCC 19977
Procedure: as §1

[15] = test system: T8, Mycobacteroides abscessus subsp. abscessus MT16_6490; assay: microbe, parasite or virus in culture; set-up: species or system M. abscessus; Resazurin microtiter assay (REMA), fluorescence; MIC at 90% growth inhibition from Gompertz fit; settings: 48 h, smooth morphotype, read-out: MIC EPT
T8 construct: MT16_6490
Procedure: as §1

[16] = test system: T9, Mycobacteroides abscessus subsp. bolletii AV; assay: microbe, parasite or virus in culture; set-up: species or system M. abscessus; Resazurin microtiter assay (REMA), fluorescence; MIC at 90% growth inhibition from Gompertz fit; settings: 48 h, smooth morphotype, read-out: MIC EPT
T9 construct: AV
Procedure: as §1

[17] = test system: T10, Mycobacteroides abscessus subsp. abscessus MT16_1065; assay: microbe, parasite or virus in culture; set-up: species or system M. abscessus; Resazurin microtiter assay (REMA), fluorescence; MIC at 90% growth inhibition from Gompertz fit; settings: 48 h, smooth morphotype, read-out: MIC EPT
T10 construct: MT16_1065
Procedure: as §1

[18] = test system: T11, Mycobacteroides abscessus subsp. bolletii Paris 167; assay: microbe, parasite or virus in culture; set-up: species or system M. abscessus; Resazurin microtiter assay (REMA), fluorescence; MIC at 90% growth inhibition from Gompertz fit; settings: 48 h, rough morphotype, read-out: MIC EPT
T11 construct: Paris 167
Procedure: as §1

T1 sequence (P9WFV1 311-512 limits assumed): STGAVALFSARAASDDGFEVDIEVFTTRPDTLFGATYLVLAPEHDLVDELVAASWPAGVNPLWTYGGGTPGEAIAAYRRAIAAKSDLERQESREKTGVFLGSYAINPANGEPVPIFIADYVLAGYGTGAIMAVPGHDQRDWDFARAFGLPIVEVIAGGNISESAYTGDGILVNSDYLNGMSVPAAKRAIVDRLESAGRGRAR

SMILES: NC[C@H]1OB(O)c2c(OCCCO)cccc21 [epetraborole]
- Kd [1]: 10 ± 4 µM
- Kd [2]: 16 ± 4 µM
- MIC [3]: 0.46 µg/mL (≈ 1.94 µM)
- MIC [4]: 2.7 µg/mL (≈ 11.4 µM)
- MIC [5]: 0.19 µg/mL (≈ 0.801 µM)
- MIC [6]: 2.7 µg/mL (≈ 11.4 µM)
- MIC [7]: > 2.7 µg/mL
- MIC [8]: 5.7 µg/mL (≈ 24 µM)
- MIC [9]: > 2.7 µg/mL
- MIC [10]: 0.063 µg/mL (≈ 0.266 µM)
- MIC [11]: 2 µg/mL (≈ 8.44 µM)
- MIC [12]: 0.022 µg/mL (≈ 0.0928 µM)
- MIC [13]: 0.014 µg/mL (≈ 0.0591 µM)
- MIC [14]: 0.11 µg/mL (≈ 0.464 µM)
- MIC [15]: 0.03 µg/mL (≈ 0.127 µM)
- MIC [16]: 0.046 µg/mL (≈ 0.194 µM)
- MIC [17]: 0.041 µg/mL (≈ 0.173 µM)
- MIC [18]: 0.027 µg/mL (≈ 0.114 µM)

Reference: publication PMC8535176, “Efficacy of epetraborole against Mycobacterium abscessus is increased with norvaline” (PLoS Pathogens, 2021)
